Converted amounts (≈) assume the structure as drawn. Like-named read-outs stand apart in the source and are kept apart here.
Tests used:
[1] = test system: Sphaerotheca fuliginea (S. fuliginea); assay: Greenhouse fungicidal activity, potted cucumber, powdery mildew; assay type: in vivo; conditions: Podosphaera fuliginea
Method: (§1) For a further validation, the controlling efficacy of compound 18 against downy mildew and powdery mildew disease was tested in greenhouse and field models.
(§2) The fungicidal activity of compound 18 against P. cubensis and S. fuliginea was evaluated according to a previously published method[30] and a potted-plant test method was adopted. […]
(§3) Greenhouse Fungicidal Activity
(§4) The fungicidal activity of compound 18 against P. cubensis and S. fuliginea was evaluated according to a previously published method 17 and a potted-plant test method was adopted. Commercial fungicide AZ was evaluated as a control under the same conditions.
(§5) Cucumber seeds were soaked in water for 2 h at 50℃ and then were kept moist for 24 h at 28℃ in an incubator. When the radicles grew to 0.5 cm, the seeds were grown in plastic pots containing a 1:1 (v/v) mixture of vermiculite and peat. At the stage of two leaves, all of the cucumber plants used for inoculations were divided into two groups to test for protective and curative effects. In the protective action, compound 18 and commercial fungicide AZ were sprayed on the leaves before the inoculation. However, the fungal inoculation and chemical spraying are reverse in the […] action.
(§6) In the protective action, compound 18 and commercial fungicide AZ were sprayed with a hand spray on the surface of the seed leaves at concentrations of 200, 100, 50, 25, 12.5, 6.25, 3.125, 1.5625 mg/L. After 2 h, inoculations of P. cubensis and S. fuliginea were carried out by spraying a conidial suspension (concentration […]), which was repeated 4 times.
(§7) After inoculation, the cucumber seedlings were cultured in a culture room at 25±2℃, 70%~80% relative humidity, and 16L:8D photoperiod for 8 d. In the curative action, the fungal inoculation and chemical spraying were reversed with the protective action. Foliar spray with fungicides to inoculated cucumber plants (before disease expression) till near-run-oﬀ was made on the 7th and 15th day after emergence. The fungicidal activity was evaluated when the nontreated cucumber plant fully developed symptoms. The area of inoculated and treated leaves covered by disease symptoms was assessed and compared to that of nontreated ones to determine the average disease index.
(§8) The disease range (i) was visually evaluated on the […]rst true leaf and ranked as a percentage infected area using a rating of 0, 1, 3, 5, 7, or 9, denoting proportions of disease over the whole leaf area of 0%, < 5%, 6–10%, 11–25%, 26–50%, and > 50%, respectively 18.
(§9) The disease index and control effect of compound 18 were calculated via the following […]
(§10) Disease index (%) = ∑(Ni × i)/(N × 9) × 100 […]

[2] = test system: Pseudoperonospora cubensis (P. cubensis); assay: Greenhouse fungicidal activity, potted cucumber, downy mildew; assay type: in vivo
Method: as §1, §2, §3, §4, §5, §6, §7, §8, §9, §10

[3] = molecular target: T1, porcine succinate-cytochrome c reductase (SCR, the mixture of complex II and bc1) (Sus scrofa, UniProt P24964); conditions: previous data, cited from earlier work
T1 construct: T h e S C R f r o m p o r c i n e h e a r t; from tissue; host or cells: porcine heart

[4] = test system: Sphaerotheca fuliginea (Schlecht.) Poll.; assay: In vivo fungus growth inhibitory rate at 200 mg/L, powdery mildew
Excerpt: Based on the above in vitro study, compounds with nanomolar and subnanomolar Ki values were selected from the total 21 newly synthezised compounds for further studies. Pesticide likeness, defined as a complex balance of various physicochemical properties and structure features, can evaluate whether a molecule is similar to the known pesticides. After the filtration of pesticide likeness, seven compounds were kept to adhere to our previously defined rules for pesticide-likeness including molecular weight (MW) ≤ 435 Da, ClogP ≤ 6, number of H-bond acceptors (HBA) ≤ 6, number of H-bond donors (HBD) ≤ 2, number of rotatable bonds (ROB) ≤ 9, and number of aromatic bonds (ARB) ≤ 17 (Table 1)[24]. […] Therefore, compound 18 was recognized as lead compound for subsequent studies.
[a] Compounds are named as “series number-site number plus substitution group number” a: -F, b: -Cl, c:
-Br, d: -NO2, e: -CH3, f: -CF3, g: -OCH3, h: -OH, i: -NH2, j: -COOH.
[b] Substitution number and group.
[c] CH is “series 1” and N is “series 2”. […]
Table S2 Fungus growth inhibitory rate of target compounds (200 mg/L).
Comp. No. R X Sphaerotheca fuliginea Pseudoperonospora cubensis

T1 sequence (P24964 whole entry, one chain of several): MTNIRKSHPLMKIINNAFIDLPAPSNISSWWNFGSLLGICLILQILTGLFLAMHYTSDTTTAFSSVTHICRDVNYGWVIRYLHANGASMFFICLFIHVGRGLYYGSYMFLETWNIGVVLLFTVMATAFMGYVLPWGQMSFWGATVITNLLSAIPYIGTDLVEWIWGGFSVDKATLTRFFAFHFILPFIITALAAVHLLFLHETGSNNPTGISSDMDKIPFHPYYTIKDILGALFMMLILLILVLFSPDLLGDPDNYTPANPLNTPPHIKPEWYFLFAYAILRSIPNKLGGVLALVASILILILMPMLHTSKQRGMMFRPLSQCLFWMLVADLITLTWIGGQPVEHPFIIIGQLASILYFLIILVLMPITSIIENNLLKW

| Compound | EC90 ([1]; greenhouse, cucumber, sprayed after inoculation, read-out: curative EC90 against S. fuliginea) [µg/mL] | EC90 ([1]; greenhouse, cucumber, sprayed before inoculation, read-out: protective EC90 against S. fuliginea) [µg/mL] | EC90 ([2]; greenhouse, cucumber, sprayed after inoculation, read-out: curative EC90 against P. cubensis) [µg/mL] | EC90 ([2]; greenhouse, cucumber, sprayed before inoculation, read-out: protective EC90 against P. cubensis) [µg/mL] | Ki ([3]; inhibition of SCR activity) [nM] | inhibition type with respect to cytochrome c [3] | Fungus growth inhibitory rate, Sphaerotheca fuliginea [4] | Fungus growth inhibitory rate, Sphaerotheca fuliginea ([4]; listed as Comp. 18) [%] | EC90 ([1]; read-out: curative EC90 against S. fuliginea) [µg/mL] | EC90 ([1]; read-out: protective EC90 against S. fuliginea) [µg/mL] | EC90 ([2]; read-out: curative EC90 against P. cubensis) [µg/mL] | EC90 ([2]; read-out: protective EC90 against P. cubensis) [µg/mL] |
| --- | --- | --- | --- | --- | --- | --- | --- | --- | --- | --- | --- | --- |
| CO/C=C(/C(=O)OC)c1ccccc1Oc1cc(Oc2ccccc2C#N)ncn1 [AZ, Azoxystrobin, reference compound] | > 500 | 254 (≈ 630 µM) | 50.7 (≈ 126 µM) | 5.36 (≈ 13.3 µM) | 298 | non-competitive | – | – | – | – | – | – |
| COC=C(C(=O)OC)c1ccccc1CSc1nc2cc(OC)ccc2s1 [Compound 18] | – | – | – | – | – | – | completely inhibited | 100 | 32.9 (≈ 81.9 µM) | 1.89 (≈ 4.71 µM) | 120 (≈ 300 µM) | 4.29 (≈ 10.7 µM) |

Source: paper PMC4549706, “Rational Design of Highly Potent and Slow-Binding Cytochrome bc1 Inhibitor as Fungicide by Computational Substitution Optimization” (Scientific Reports, 2015)
